Measured values: US20120214862A1, “MODULATION OF FACTOR 7 EXPRESSION” (ISIS Pharmaceuticals, Inc., priority 2009, published 2012)
In the oligonucleotide strings, read from the 5' end, every base follows the letter of its sugar. An asterisk marks phosphorothioate; unmarked linkages are phosphodiester. Other units and linkages are bracketed, terminal groups are in braces. A string of capitals states the bases alone. e = 2'-O-(2-methoxyethyl) (MOE); [5mC] = 5-methylcytosine; d = 2'-deoxy (DNA)

Key:
human Factor 7 mRNA [1] = assay: Antisense inhibition of human Factor 7 mRNA in HepB3 cells, lipofectin, 50 nM, real-time RT-PCR; type: cell-based; details: for % Inhibition (human Factor 7 mRNA): 50 nM, ~24 h
How it was run: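 After transfection of wells containing 4,000 cells, treatment ran for approximately 24 h. RIBOGREEN®-measured total RNA served for normalisation, and inhibition was calculated as a percentage of untreated control.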

human Factor 7 mRNA [2] = assay: Dose-dependent antisense inhibition of human Factor 7 in HepB3 cells, transfection with lipofectin; type: cell-based; details: HepB3, lipofectin, ~16 h
Experimental: Cells were plated at a density of 4,000 cells per well and treated with lipofectin reagent with 3.125 nM, 6.25 nM, 12.5 nM, 25 nM, 50 nM, and 100 nM concentrations of antisense oligonucleotide, as indicated in Table 3. After a treatment period of approximately 16 hours, RNA was isolated from the cells and Factor 7 mRNA levels were measured by real-time RT-PCR, as described herein. Human Factor 7 primer probe set RTS 2927 (forward sequence: […], incorporated herein as SEQ ID NO: 164; reverse sequence: […], incorporated herein as SEQ ID NO: 165; probe sequence: TGGGTGGTCTCCGCGGCCX, incorporated herein as SEQ ID NO: 166) was used to measure mRNA levels. Factor 7 mRNA levels were adjusted according to total RNA content as measured by RIBOGREEN®. Results are presented as percent inhibition of Factor 7, relative to untreated control cells.
Cells were plated at a density of 4,000 cells per well and transfected using lipofectin reagent with 6.25 nM, 12.5 nM, 25.0 nM, 50.0 nM, and 100.0 nM concentrations of antisense oligonucleotide, as indicated in Table 7. After a treatment period of approximately 16 hours, RNA was isolated from the cells and Factor 7 mRNA levels were measured by real-time RT-PCR, as described herein. Human Factor 7 primer probe set RTS 2927 was used to measure mRNA levels. Factor 7 mRNA levels were adjusted according to total RNA content as measured by RIBOGREEN®. Results are presented as percent inhibition of Factor 7, relative to untreated control cells.
Cells were plated at a density of 4,000 cells per well and transfected using lipofectin reagent with 3.125 nM, 6.25 nM, 12.5 nM, 25 nM, 50 nM, and 100 nM concentrations of antisense oligonucleotide, as specified in Table 14. After a treatment period of approximately 16 hours, RNA was isolated from the cells and Factor 7 mRNA levels were measured by quantitative real-time PCR. Human Factor 7 primer probe set RTS 2927 was used to measure mRNA levels. Factor 7 mRNA levels were adjusted according to total RNA content, as measured by RIBOGREEN®. Results are presented as percent inhibition of Factor 7, relative to untreated control cells.

[3] = Example 1, HepB3 cells, lipofectin, relative to untreated control cells
[4] = HepB3 cells, lipofectin, 50 nM antisense oligonucleotide, approximately 24 hours, primer probe set RTS 2927, relative to untreated control
[5] = Example 6 microwalk, nucleobases 15098 to 15122 of SEQ ID NO: 1, HepB3, lipofectin
[6] = HepB3 cells, gapmers (5-10-5, 3-14-3, 2-13-5 MOE) targeted to nucleobases 4868 to 4899 of SEQ ID NO: 1

| Substance | % Inhibition (human Factor 7 mRNA) (human Factor 7 mRNA [1]; [3]) [%] | percent inhibition of Factor 7 mRNA, 3.125 nM (human Factor 7 mRNA [2]; Example 2) [%] | percent inhibition of Factor 7 mRNA, 6.25 nM (human Factor 7 mRNA [2]; Example 2) [%] | percent inhibition of Factor 7 mRNA, 12.5 nM (human Factor 7 mRNA [2]; Example 2) [%] | percent inhibition of Factor 7 mRNA, 25.0 nM (human Factor 7 mRNA [2]; Example 2) [%] | percent inhibition of Factor 7 mRNA, 50.0 nM (human Factor 7 mRNA [2]; Example 2) [%] | percent inhibition of Factor 7 mRNA, 100.0 nM (human Factor 7 mRNA [2]; Example 2) [%] | % Inhibition (human Factor 7 mRNA) (human Factor 7 mRNA [1]; [5]) [%] | % Inhibition of human Factor 7 mRNA levels (human Factor 7 mRNA [1]; [6]) [%] | other results |
| --- | --- | --- | --- | --- | --- | --- | --- | --- | --- | --- |
| 407594 (antisense e[5mC]*e[5mC]*eT*eG*e[5mC]*dA*dG*d[5mC]*d[5mC]*dA*dG*dG*d[5mC]*dA*dG*e[5mC]*e[5mC]*e[5mC]*eT*eG) [compound 407594] | 87 | 10 | 34 | 63 | 77 | 84 | 80 | – | – | – |
| 407606 (antisense e[5mC]*eT*eG*eG*eT*d[5mC]*d[5mC]*dT*dT*dG*d[5mC]*dA*dG*dG*dA*eG*e[5mC]*e[5mC]*e[5mC]*e[5mC]) [compound 407606] | 89 | 20 | 0 | 49 | 55 | 83 | 84 | – | – | % Inhibition of human Factor 7 mRNA levels (human Factor 7 mRNA [1]; [4]): 57% |
| 407641 (antisense e[5mC]*e[5mC]*eT*eG*eA*dG*dG*d[5mC]*d[5mC]*dA*dG*d[5mC]*dA*dG*dA*eT*e[5mC]*eA*e[5mC]*eG) [compound 407641] | 94 | 53 | 53 | 71 | 84 | 88 | 89 | – | – | % Inhibition of human Factor 7 mRNA levels (human Factor 7 mRNA [1]; [4]): 73%; % Inhibition of human Factor 7 mRNA levels (human Factor 7 mRNA [1]; HepB3 cells, gapmers targeted to nucleobases 14707 to 14732 of SEQ ID NO: 1 (Table 11)): 68% |
| 407643 (antisense e[5mC]*eA*e[5mC]*eA*e[5mC]*dA*dT*dG*dG*dA*dG*dT*d[5mC]*dA*dG*e[5mC]*eA*eT*e[5mC]*eG) [compound 407643] | 84 | 16 | 59 | 68 | 76 | 92 | 95 | 69 | – | % Inhibition of human Factor 7 mRNA levels (human Factor 7 mRNA [1]; [4]): 80%; percent inhibition of Factor 7 mRNA, 6.25 nM (human Factor 7 mRNA [2]; Example 5): 36%; percent inhibition of Factor 7 mRNA, 12.5 nM (human Factor 7 mRNA [2]; Example 5): 49%; percent inhibition of Factor 7 mRNA, 25.0 nM (human Factor 7 mRNA [2]; Example 5): 70%; percent inhibition of Factor 7 mRNA, 50.0 nM (human Factor 7 mRNA [2]; Example 5): 83%; percent inhibition of Factor 7 mRNA, 100.0 nM (human Factor 7 mRNA [2]; Example 5): 93% |
| 407900 (antisense e[5mC]*e[5mC]*e[5mC]*e[5mC]*eA*d[5mC]*dA*dA*dT*dT*d[5mC]*dG*dG*d[5mC]*d[5mC]*eT*eT*eG*eG*eG) [compound 407900] | 91 | 52 | 58 | 80 | 87 | 94 | 91 | – | – | % Inhibition of human Factor 7 mRNA levels (human Factor 7 mRNA [1]; [4]): 78%; percent inhibition of Factor 7 mRNA, 6.25 nM (human Factor 7 mRNA [2]; Example 5): 18%; percent inhibition of Factor 7 mRNA, 12.5 nM (human Factor 7 mRNA [2]; Example 5): 36%; percent inhibition of Factor 7 mRNA, 25.0 nM (human Factor 7 mRNA [2]; Example 5): 61%; percent inhibition of Factor 7 mRNA, 50.0 nM (human Factor 7 mRNA [2]; Example 5): 82%; percent inhibition of Factor 7 mRNA, 100.0 nM (human Factor 7 mRNA [2]; Example 5): 91% |
| 407910 (antisense eA*eG*eT*e[5mC]*e[5mC]*dT*dT*dG*d[5mC]*dT*dG*d[5mC]*d[5mC]*dA*dT*e[5mC]*e[5mC]*eG*eA*eG) [compound 407910] | 86 | 31 | 44 | 69 | 68 | 82 | 89 | – | – | % Inhibition of human Factor 7 mRNA levels (human Factor 7 mRNA [1]; [4]): 72% |
| 407936 (antisense eG*eG*e[5mC]*eA*eT*dT*d[5mC]*dG*d[5mC]*d[5mC]*dA*d[5mC]*d[5mC]*dA*dT*eG*e[5mC]*eA*eT*eG) [compound 407936] | 91 | 45 | 77 | 79 | 86 | 91 | 90 | – | – | – |
| 422284 (antisense e[5mC]*eA*d[5mC]*dA*d[5mC]*dA*dT*dG*dG*dA*dG*dT*d[5mC]*dA*dG*e[5mC]*eA*eT*e[5mC]*eG) [compound 422284] | – | – | – | – | – | – | – | 43 | – | – |
| 422285 (antisense eG*e[5mC]*dA*d[5mC]*dA*d[5mC]*dA*dT*dG*dG*dA*dG*dT*d[5mC]*dA*eG*e[5mC]*eA*eT*e[5mC]) [compound 422285] | – | – | – | – | – | – | – | 39 | – | – |
| 422286 (antisense eA*eG*d[5mC]*dA*d[5mC]*dA*d[5mC]*dA*dT*dG*dG*dA*dG*dT*d[5mC]*eA*eG*e[5mC]*eA*eT) [compound 422286] | – | – | – | – | – | – | – | 53 | – | – |
| 422287 (antisense e[5mC]*eA*dG*d[5mC]*dA*d[5mC]*dA*d[5mC]*dA*dT*dG*dG*dA*dG*dT*e[5mC]*eA*eG*e[5mC]*eA) [compound 422287] | – | – | – | – | – | – | – | 41 | – | – |
| 422288 (antisense eA*e[5mC]*dA*dG*d[5mC]*dA*d[5mC]*dA*d[5mC]*dA*dT*dG*dG*dA*dG*eT*e[5mC]*eA*eG*e[5mC]) [compound 422288] | – | – | – | – | – | – | – | 44 | – | – |
| 422289 (antisense eG*eA*d[5mC]*dA*dG*d[5mC]*dA*d[5mC]*dA*d[5mC]*dA*dT*dG*dG*dA*eG*eT*e[5mC]*eA*eG) [compound 422289] | – | – | – | – | – | – | – | 34 | – | – |
| 422290 (antisense eT*e[5mC]*dT*dG*d[5mC]*dA*dG*dG*dA*dG*d[5mC]*dG*dG*d[5mC]*d[5mC]*eT*eA*eA*eA*eT) [compound 422290] | – | – | – | – | – | – | – | – | 50 | – |
| 422291 (antisense eT*eT*d[5mC]*dT*dG*d[5mC]*dA*dG*dG*dA*dG*d[5mC]*dG*dG*d[5mC]*e[5mC]*eT*eA*eA*eA) [compound 422291] | – | – | – | – | – | – | – | – | 53 | – |
| 422293 (antisense eA*eG*dT*dT*d[5mC]*dT*dG*d[5mC]*dA*dG*dG*dA*dG*d[5mC]*dG*eG*e[5mC]*e[5mC]*eT*eA) [compound 422293] | – | – | – | – | – | – | – | – | 69 | – |
| 422297 (antisense e[5mC]*e[5mC]*d[5mC]*dG*dA*dG*dT*dT*d[5mC]*dT*dG*d[5mC]*dA*dG*dG*eA*eG*e[5mC]*eG*eG) [compound 422297] | – | – | – | – | – | – | – | – | 63 | – |
| 422298 (antisense eG*e[5mC]*d[5mC]*d[5mC]*dG*dA*dG*dT*dT*d[5mC]*dT*dG*d[5mC]*dA*dG*eG*eA*eG*e[5mC]*eG) [compound 422298] | – | – | – | – | – | – | – | – | 62 | – |
| 422299 (antisense eA*eG*d[5mC]*d[5mC]*d[5mC]*dG*dA*dG*dT*dT*d[5mC]*dT*dG*d[5mC]*dA*eG*eG*eA*eG*e[5mC]) [compound 422299] | – | – | – | – | – | – | – | – | 64 | – |
| 422300 (antisense eG*eA*dG*d[5mC]*d[5mC]*d[5mC]*dG*dA*dG*dT*dT*d[5mC]*dT*dG*d[5mC]*eA*eG*eG*eA*eG) [compound 422300] | – | – | – | – | – | – | – | – | 65 | – |
| 422301 (antisense eG*eG*dA*dG*d[5mC]*d[5mC]*d[5mC]*dG*dA*dG*dT*dT*d[5mC]*dT*dG*e[5mC]*eA*eG*eG*eA) [compound 422301] | – | – | – | – | – | – | – | – | 67 | – |
| 422302 (antisense eA*eG*dG*dA*dG*d[5mC]*d[5mC]*d[5mC]*dG*dA*dG*dT*dT*d[5mC]*dT*eG*e[5mC]*eA*eG*eG) [compound 422302] | – | – | – | – | – | – | – | – | 67 | – |
